The record followed here is patent publication US20250288590A1, “DRUG SUSTAINED-RELEASE TABLET FOR TREATING LIVER DISEASE, PREPARATION METHOD THEREFOR AND USE THEREOF” (CHANGCHUN INTELLICROWN PHARMACEUTICAL CO., LTD., priority 2022, published 2025).

The structures appear in SMILES notation.

Data set [1] can be described thus: rat pharmacokinetic studies, oral administration. The format is in vivo. As to conditions: rats.
A short description of data set [2]: solubility, pH dependence. The format is physicochemical. As to conditions: mesylate; increasing pH.
Data set [3] in a line: pharmacokinetics in Beagle dogs, oral administration of the compound. The format is in vivo.

By bioavailability is commonly meant dose-corrected exposure relative to a reference, in per cent. One may read the half-life as how long it takes for the measured level to halve. As to `COC(=O)c1cc(OC)c2c(c1-c1c(CN3CCOCC3)cc(OC)c3c1OCO3)OCO2` [IMM-H014, methyl 7,7′-dimethoxy-5′-(morpholinomethyl)-[4,4′-bibenzo[d][1,3]dioxole]-5-carboxylate], the bioavailability in data set [1] (rat, blood, oral) was 96.3%. Besides, the half-life in data set [1] (rat, blood, oral administration, read-out: elimination half-life (converted)) is around 1.8 h; in data set [3] (dog, blood, Beagle dogs, read-out: elimination half-life (converted)), around 3.5 h. In data set [1] (oral administration), the “peak blood concentration (time)” value is 0.5 h. Besides, in data set [2], the “solubility (pH-dependent)” value was “as the pH increases, the solubility gradually decreases”. Further, the “time to peak blood concentration (Tmax)” value in data set [3] (dogs) was 0.5 h.
